Measured values reported in PMC10725991, “Kaempferol is a novel antiviral agent against channel catfish virus infection through blocking viral attachment and penetration in vitro” (Frontiers in Veterinary Science, 2023).

Experiments:
Assay type in all cases: cell-based, Channel catfish virus (CCV, Ictalurid herpesvirus 1)
[1] = tested on: CCV (strain VR-665) in CCO cells; assay: Anti-CCV replication assay of kaempferol, RT-qPCR
Description: The CCO cells were infected with the CCV at 10^3 TCID50/ml at 28°C for 1 h. Then, the cell culture medium was replaced using isopycnic DMEM medium containing various concentrations kaempferol (2.5, 5, 7.5, 10, 12.5, and 15 μg/mL). The cells without exposure to kaempferol and CCV were set as the mock control. CCV-infected cells served as a negative control. 24 and 36 h post-infection, the cells were collected and subjected to the RT-qPCR and western blot analysis for the viral gene and protein expression. Meanwhile, the cells were treated as described above for the determination of virus titer. […]
(§1) For RT-qPCR, the total RNA was isolated from CCV-infected cells using RnaExTM (Trizol)^a reagent (GENERAY, China), and reversed transcribed applying a HiScript III RT SuperMix with gDNA wiper (Vazyme, China) following the manufacturer’s instructions. Quantitative PCR was performed with a LightCycler 96 Real-Time PCR Detection System (Roche, USA) using ChamQ Universal SYBR qPCR Master Mix (Vazyme, China) with the following cycle conditions: 95°C for 30 s, followed by 40 cycles of 95°C for 10 s and 60°C for 30 s. […] Fold changes of the selected gene vs 18 s (internal reference) were calculated by the 2^−△△Ct method.
Figure 3 The anti-CCV activity by different concentration of kaempferol in vitro. […] The p value was determined by *p < 0.05, **p < 0.01.

[2] = tested on: CCV in CCO cells; assay: Virus titration assay (TCID50) after kaempferol treatment; details: increasing concentration 2.5-15 μg/mL, 24 and 36 h post CCV infection
Description: The CCO cells were infected with the CCV at 10^3 TCID50/ml at 28°C for 1 h. Then, the cell culture medium was replaced using isopycnic DMEM medium containing various concentrations kaempferol (2.5, 5, 7.5, 10, 12.5, and 15 μg/mL). The cells without exposure to kaempferol and CCV were set as the mock control. CCV-infected cells served as a negative control. 24 and 36 h post-infection, the cells were collected and subjected to the RT-qPCR and western blot analysis for the viral gene and protein expression. Meanwhile, the cells were treated as described above for the determination of virus titer. The supernatant and cell pellets were collected at 24 and 36 h post-infection and the TCID50 was used to evaluate the viral loads of intracellular and extracellular.
(§2) Measurement of viral titer was described previously ([5]). […]
Figure 3 The anti-CCV activity by different concentration of kaempferol in vitro. […] The relative expression levels of the CCV ORF 39 and ORF 59 genes were evaluated by RT-qPCR at 24 h (A) and 36 h (B) post-infection. […] The cells were collected at 24 h (E) and 36 h (F) after infection and CCV ORF 39 and ORF59 proteins and cellular GADPH were analyzed by western blot. (G) The intracellular and released CCV virions separated from cell lysates and supernatants at 24 h and 36 h post infection were analyzed by viral titer. […] The p value was determined by *p < 0.05, **p < 0.01.

[3] = tested on: CCV in CCO cells; assay: Virus attachment assay; details: kaempferol 15 μg/mL, 24 h
Description: The attachment assay was performed as previously described, with slight modifications ([35]). Briefly, monolayer CCO cells seeded in 24-well plates were pre-cooled at 4°C for 30 min, and then the pre-cooled cells were treated with kaempferol (15 μg/mL) or left untreated for 2 h at 4°C. Cells were then incubated with CCV at 4°C for 1 h to allow virus attachment but prevent viral internalization. Thereafter, the compound and unattached virus were washed with ice-cold PBS and a fresh DMEM medium was added. After incubated at 28°C for 24 h, the cells were collected for subsequent experiments, including RT-qPCR and viral titer.
as §2
as §1, with “method. […]” for “method.”

Structure (SMILES): O=c1c(O)c(-c2ccc(O)cc2)oc2cc(O)cc(O)c12 [Kaempferol]
- inhibitory effect of CCV-ORF 39 and CCV-ORF 59 ([1]; 24 h post viral infection, kaempferol 2.5-15 μg/mL, RT-qPCR): over 85%
- viral mRNA levels compared with the control group ([1]; 36 h post viral infection, kaempferol 10 μg/mL to 15 μg/mL): significantly lower
- intracellular and progeny viral loads (viral titer) [2]: dramatically reduced
- down-regulation of viral attachment (CCV ORF 39/ORF 59, RT-qPCR) vs CCV control ([3]; 2 h at 4°C): more than 50%
- production of intracellular virus (virus titer), attachment assay [3]: significantly reduced
